Tested on: 855422-203-R-J1-PDC complex spheroids, viability
Assay: Anticancer human tumor 855422-203-R-J1-PDC patient-derived bladder carcinoma cell line growth inhibition [CLK]
Settings: for IC50: curve of first compound; for viability, T/C: stronger effect = lower value
In short: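 Patient-derived tumor cells grown as complex spheroids with HUVEC endothelial cells and mesenchymal stem cells, treated with drug combinations. Concentrations descend in half-log steps from near clinical Cmax, or from 10 microM if Cmax unknown.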

[1] = second compound 0.0316 µM, first compound 0.0316 µM
[2] = second compound 0.0316 µM, first compound 0.1 µM
[3] = second compound 0.0316 µM, first compound 0.316 µM
[4] = second compound 0.0316 µM, first compound 1 µM
[5] = second compound 0.0316 µM, first compound 3.16 µM
[6] = second compound 0.0316 µM, first compound 10 µM
[7] = second compound 0.1 µM, first compound 0.0316 µM
[8] = second compound 0.1 µM, first compound 0.1 µM
[9] = second compound 0.1 µM, first compound 0.316 µM
[10] = second compound 0.1 µM, first compound 1 µM
[11] = second compound 0.1 µM, first compound 3.16 µM
[12] = second compound 0.1 µM, first compound 10 µM
[13] = second compound 0.316 µM, first compound 0.0316 µM
[14] = second compound 0.316 µM, first compound 0.1 µM
[15] = second compound 0.316 µM, first compound 0.316 µM
[16] = second compound 0.316 µM, first compound 1 µM
[17] = second compound 0.316 µM, first compound 3.16 µM
[18] = second compound 0.316 µM, first compound 10 µM
[19] = second compound 1 µM, first compound 0.0316 µM
[20] = second compound 1 µM, first compound 0.1 µM
[21] = second compound 1 µM, first compound 0.316 µM
[22] = second compound 1 µM, first compound 1 µM
[23] = second compound 1 µM, first compound 3.16 µM
[24] = second compound 1 µM, first compound 10 µM
[25] = second compound 3.16 µM, first compound 0.0316 µM
[26] = second compound 3.16 µM, first compound 0.1 µM
[27] = second compound 3.16 µM, first compound 0.316 µM
[28] = second compound 3.16 µM, first compound 1 µM
[29] = second compound 3.16 µM, first compound 3.16 µM
[30] = second compound 3.16 µM, first compound 10 µM
[31] = second compound 10 µM, first compound 0.0316 µM
[32] = second compound 10 µM, first compound 0.1 µM
[33] = second compound 10 µM, first compound 0.316 µM
[34] = second compound 10 µM, first compound 1 µM
[35] = second compound 10 µM, first compound 3.16 µM
[36] = second compound 10 µM, first compound 10 µM
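Note: spheroids exposed to drugs for seven days before readout.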
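Throughout, for viability, T/C: 100% = DMSO vehicle control wells.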

Compound: COc1ccc([C@@H](O)c2cc(-c3ncnc4cc(N5CCOCC5)ccc34)c(F)cc2Cl)nn1 + CN1CCN(c2cc(C(=O)Nc3cc4cc(-c5cnn(C)c5)ccc4cn3)ccn2)CC1
- IC50 (second compound 0.0316 µM): 5350 nM
- IC50 (second compound 0.1 µM): 5050 nM
- IC50 (second compound 0.316 µM): < 31.6 nM
- IC50 (second compound 1 µM): < 31.6 nM
- IC50 (second compound 3.16 µM): < 31.6 nM
- IC50 (second compound 10 µM): < 31.6 nM
- viability, T/C [1]: 104%
- viability, T/C [2]: 118%
- viability, T/C [3]: 91.3%
- viability, T/C [4]: 94%
- viability, T/C [5]: 66%
- viability, T/C [6]: 29.9%
- viability, T/C [7]: 84.7%
- viability, T/C [8]: 96.1%
- viability, T/C [9]: 89.2%
- viability, T/C [10]: 86%
- viability, T/C [11]: 64.6%
- viability, T/C [12]: 28.7%
- viability, T/C [13]: 6.51%
- viability, T/C [14]: 8.74%
- viability, T/C [15]: 5.23%
- viability, T/C [16]: 4.62%
- viability, T/C [17]: 5.93%
- viability, T/C [18]: 5.44%
- viability, T/C [19]: 0.14%
- viability, T/C [20]: 0.19%
- viability, T/C [21]: 0.74%
- viability, T/C [22]: 0.11%
- viability, T/C [23]: 2.55%
- viability, T/C [24]: 0.09%
- viability, T/C [25]: 1.7%
- viability, T/C [26]: 0.33%
- viability, T/C [27]: 1.52%
- viability, T/C [28]: 0.2%
- viability, T/C [29]: 0.33%
- viability, T/C [30]: 0.13%
- viability, T/C [31]: 0.6%
- viability, T/C [32]: 0.27%
- viability, T/C [33]: 0.24%
- viability, T/C [34]: 0.24%
- viability, T/C [35]: 0.26%
- viability, T/C [36]: 0.19%

Compound: C#Cc1c(F)ccc2cc(O)cc(-c3ncc4c(N5CC6CCC(C5)N6)nc(OCC56CCCN5CC(F)C6)nc4c3F)c12 (centres undefined) + CN1CCN(c2cc(C(=O)Nc3cc4cc(-c5cnn(C)c5)ccc4cn3)ccn2)CC1
- IC50 (second compound 0.0316 µM): > 10000 nM
- IC50 (second compound 0.1 µM): > 10000 nM
- IC50 (second compound 0.316 µM): < 31.6 nM
- IC50 (second compound 1 µM): < 31.6 nM
- IC50 (second compound 3.16 µM): < 31.6 nM
- IC50 (second compound 10 µM): < 31.6 nM
- viability, T/C [1]: 106%
- viability, T/C [2]: 98.8%
- viability, T/C [3]: 119%
- viability, T/C [4]: 98.8%
- viability, T/C [5]: 104%
- viability, T/C [6]: 113%
- viability, T/C [7]: 84.4%
- viability, T/C [8]: 84.4%
- viability, T/C [9]: 85.1%
- viability, T/C [10]: 89.2%
- viability, T/C [11]: 93.3%
- viability, T/C [12]: 81.9%
- viability, T/C [13]: 13%
- viability, T/C [14]: 12.4%
- viability, T/C [15]: 14.8%
- viability, T/C [16]: 15.1%
- viability, T/C [17]: 14.9%
- viability, T/C [18]: 8.68%
- viability, T/C [19]: 0.86%
- viability, T/C [20]: 0.58%
- viability, T/C [21]: 0.22%
- viability, T/C [22]: 0.24%
- viability, T/C [23]: 0.22%
- viability, T/C [24]: 0.17%
- viability, T/C [25]: 0.39%
- viability, T/C [26]: 0.72%
- viability, T/C [27]: 0.49%
- viability, T/C [28]: 0.38%
- viability, T/C [29]: 1.64%
- viability, T/C [30]: 0.18%
- viability, T/C [31]: 0.42%
- viability, T/C [32]: 0.85%
- viability, T/C [33]: 0.3%
- viability, T/C [34]: 0.35%
- viability, T/C [35]: 0.3%
- viability, T/C [36]: 0.2%

Reference: PubChem BioAssay AID2060609 (Molecular Pharmacology Branch, DTP, NCI, 2025)
